Data taken from US11597708B2, “Inhibitors of heat shock factors and uses thereof” (HSF Pharmaceuticals SA, priority 2016, dated 2023).

Tests used:
[1] = target: T1, HSF1 DNA-binding activity (Homo sapiens, UniProt Q00613); test: EMSA of extracts of heat-treated HeLa cells exposed to compound; format: cell-based; conditions: HeLa cells exposed to different concentrations, heat-treated 43° C./30 min; effect of IHSF 058 at 25 or 50 μM
T1 construct: functionally linked to an hsp70b promoter and therefore controlled by endogenous HSF1; endogenous in cells; host or cells: HeLa cells / HeLa-derived cell line Z74
T1 sequence (Q00613 whole entry): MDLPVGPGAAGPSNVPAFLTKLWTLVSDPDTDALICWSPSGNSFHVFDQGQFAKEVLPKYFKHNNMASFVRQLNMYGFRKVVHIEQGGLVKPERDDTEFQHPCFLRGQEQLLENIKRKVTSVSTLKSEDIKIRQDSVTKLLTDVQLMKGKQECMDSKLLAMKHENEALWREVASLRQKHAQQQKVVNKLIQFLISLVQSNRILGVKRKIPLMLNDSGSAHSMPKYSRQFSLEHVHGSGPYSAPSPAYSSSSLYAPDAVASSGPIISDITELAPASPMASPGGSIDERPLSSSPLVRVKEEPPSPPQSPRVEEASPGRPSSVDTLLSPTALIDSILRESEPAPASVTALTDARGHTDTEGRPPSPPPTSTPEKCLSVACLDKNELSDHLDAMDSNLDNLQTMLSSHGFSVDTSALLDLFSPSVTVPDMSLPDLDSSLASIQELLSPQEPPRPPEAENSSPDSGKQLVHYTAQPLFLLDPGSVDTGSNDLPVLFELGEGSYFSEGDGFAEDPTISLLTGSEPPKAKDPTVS
Experimental: (§1) FIG. 3. (A) HeLa cell cultures were mock-treated (−) or exposed for 2 hours to the indicated concentrations of compounds 058 or 115 and then heat-treated (HS) at 43° C. for 30 min. Top panels: HSF1 DNA-binding activities in cell extracts were determined by EMSA. The panels show the major HSF1-HSE DNA probe complexes. Middle panels: HSF1 levels assayed by western blot (WB). GAPDH served as a loading control. Bottom panels: HSF1 homooligomerization. Aliquots of extracts were EGS-treated and then analyzed by anti-HSF1 WB. The positions of pre-stained molecular weight marker proteins (MW, in thousands) are indicated to the right. Asterisks indicate the positions of monomeric and trimeric HSF1, respectively. (B) Relative occupancy of the hspa1a promoter was assessed by chromatin immunoprecipitation assay of HeLa cell cultures mock-treated (−) or treated with compounds 058 or 115 at 12.5 μM concentrations for 2 hours and then heat-treated (HS) at 43° C. for 30 min. Chromatin fragments were immunoprecipitated using HSF1 antibodies or an F4/80 LR (control) antibody, and associated hspa1a promoter DNA was quantified by real-time PCR. […]

HSF1 levels = target: T2, HSF1 levels (Homo sapiens, UniProt Q00613); test: Anti-HSF1 western blot of HeLa cell extracts; format: cell-based; conditions: same extracts of exposed, heat-treated HeLa cells
T2 construct: functionally linked to an hsp70b promoter and therefore controlled by endogenous HSF1; endogenous in cells; host or cells: HeLa cells / HeLa-derived cell line Z74
T2 sequence (Q00613 whole entry): as above
Experimental: as §1

HSF1 oligomerization = target: T3, HSF1 oligomerization (Homo sapiens, UniProt Q00613); test: EGS cross-linking and anti-HSF1 western blot (HSF1 oligomerization); format: cell-based; conditions: extracts of exposed, heat-treated HeLa cells
T3 construct: functionally linked to an hsp70b promoter and therefore controlled by endogenous HSF1; endogenous in cells; host or cells: HeLa cells / HeLa-derived cell line Z74
T3 sequence (Q00613 whole entry): as above
Experimental: FIG. 3. (A) HeLa cell cultures were mock-treated (−) or exposed for 2 hours to the indicated concentrations of compounds 058 or 115 and then heat-treated (HS) at 43° C. for 30 min. Top panels: HSF1 DNA-binding activities in cell extracts were determined by EMSA. The panels show the major HSF1-HSE DNA probe complexes. Middle panels: HSF1 levels assayed by western blot (WB). GAPDH served as a loading control. Bottom panels: HSF1 homooligomerization. Aliquots of extracts were EGS-treated and then analyzed by anti-HSF1 WB. The positions of pre-stained molecular weight marker proteins (MW, in thousands) are indicated to the right. Asterisks indicate the positions of monomeric and trimeric HSF1, respectively. (B) Relative occupancy of the hspa1a promoter was assessed by chromatin immunoprecipitation assay of HeLa cell cultures mock-treated (−) or treated with compounds 058 or 115 at 12.5 μM concentrations for 2 hours and then heat-treated (HS) at 43° C. for 30 min. Chromatin fragments were immunoprecipitated using HSF1 antibodies or an F4/80 LR (control) antibody, and associated hspa1a promoter DNA was quantified by real-time PCR.
We also investigated whether the compounds were capable of interfering with HSF1 oligomerization. Aliquots of the extracts were subjected to cross-linking with EGS (ethylene glycolbis(succinimidylsuccinate)) and then re-analyzed by anti-HSF1 WB. […]

[2] = system: hsp70b/hspa7 promoter-driven rluc gene; test: Reverse transcription real-time PCR of rluc mRNA in Z74 cells; format: cell-based, human; conditions: for rluc mRNA levels at 1 μM: 1 μM concentrations of the IHSF; for transcript levels of the hsp70b/hspa7 promoter-driven rluc gene: 2 h exposure at different concentrations, heat treatment, 1 h post-incubation at 37° C.
Experimental: (§2) FIG. 4. (A) rluc, hspa7 and hspa1a mRNA levels in Z74 cells mock-exposed (−) or exposed to the indicated concentrations of compounds 058 or 115 for 2 hours, heat-treated (HS) at 43° C. for 30 min and post-incubated for one hour at 37° C. mRNA levels were quantified by reverse transcription-real-time PCR. (B) HSP72 levels in HeLa cells mock-exposed (−) or exposed to the indicated concentrations of compounds 058 or 115 for 2 hours, heat-treated (HS) at 43° C. for 30 min and post-incubated for 6 hours at 37° C. HSP72 levels were estimated by HSP72 WB. GAPDH levels served as “loading controls”.
(§3) To assess the transcriptional effects of the IHSF, cultures of Z74 cells were exposed for two hours to IHSF 058 or IHSF 115 at different concentrations, or to vehicle. Following heat treatment and a one-hour post-incubation at 37° C., extracts were prepared, and polyadenylated rluc, hsp70b (hspa7) and hspa1a RNA was quantified by reverse transcription and real-time PCR. […] IHSF 115 had somewhat more important effects than IHSF 058. […] We tend to discount the possibility that the latter data report effects on transcript stability.

hspa7 (hsp70b) = test: Reverse transcription real-time PCR of hspa7 (hsp70b) mRNA in Z74 cells; format: cell-based, human; conditions: heat-treated, somewhat less sensitive than rluc gene
Experimental: as §2, §3

inducible Hsp70 (HSP72) = test: HSP72 western blot in heat-treated HeLa cells; format: cell-based, human
Experimental: as §2

[3] = Aqueous solubility (statement); format: physicochemical

SMILES | heat-induced HSF1 DNA-binding activity (EMSA) [1] | HSF1 levels (anti-HSF1 western blot) (HSF1 levels) | HSF1 oligomerization (EGS cross-linking, anti-HSF1 WB) (HSF1 oligomerization) | rluc mRNA levels at 1 μM [2] | transcript levels of the hsp70b/hspa7 promoter-driven rluc gene [2] | hspa7 (hsp70b) transcript accumulation (hspa7 (hsp70b)) | heat-induced accumulation of inducible Hsp70 (WB), relative effectiveness (inducible Hsp70 (HSP72)) | aqueous solubility [3] | heat-induced accumulation of inducible Hsp70 (WB) (inducible Hsp70 (HSP72); 3.125 μM) | heat-induced accumulation of inducible Hsp70 (WB) (inducible Hsp70 (HSP72); 6.25 μM)
CCOC(=O)/C=C/C(=O)Nc1ncc(-c2cccnc2)s1 [IHSF 058, (E)-3-(5-Pyridm-3-yl-thiazol-2-ylcarbamoyl)-acrylic acid ethyl ester] | important reductions | reduced levels of HSF1 | No impairment of oligomerization | substantially reduced | dose-dependent reduction | Dose-dependent inhibitory effects | less effective than IHSF 115 | limited | – | –
CN(C(=O)/C=C/C1=NCCCO1)c1ncc(-c2cccnc2)s1 [IHSF 115, (E)-3-(5,6-Dihydro-4H-[1,3]oxazin-2-yl)-N-methyl-N-(5-pyridin-3-yl-thiazol-2-yl)-acrylamide] | failed to have a similar effect | did not affect HSF1 levels | No impairment of oligomerization | substantially reduced | dose-dependent reduction | Dose-dependent inhibitory effects | – | limited | detectable inhibitory effects | more substantial effects
